The text below walks through data of BindingDB's records for doi:10.1021/jm011007+ (University of Perugia, 2002).

The target of experiment [1] is Sodium-dependent serotonin transporter (Homo sapiens, UniProt P31645). Nature of the experiment: Inhibition of [125I]RTI-55 binding to human SERT in clonal cells.
Experiment [2] deals with Sodium-dependent dopamine transporter (Homo sapiens, UniProt Q01959). Nature of the experiment: Inhibition of radioligand [125I]RTI-55 binding to human Dopamine transporter in clonal cells.

The structures appear in SMILES notation. Values joined by “and” are separate entries in the source; they are usually repeats but may differ in a detail not shown here. Equal values may be shown once.

The Kd is the concentration at which binding is half-saturated. The low end stands for higher affinity, the high end for lower affinity.

Sodium-dependent dopamine transporter, sequence (Q01959 whole entry): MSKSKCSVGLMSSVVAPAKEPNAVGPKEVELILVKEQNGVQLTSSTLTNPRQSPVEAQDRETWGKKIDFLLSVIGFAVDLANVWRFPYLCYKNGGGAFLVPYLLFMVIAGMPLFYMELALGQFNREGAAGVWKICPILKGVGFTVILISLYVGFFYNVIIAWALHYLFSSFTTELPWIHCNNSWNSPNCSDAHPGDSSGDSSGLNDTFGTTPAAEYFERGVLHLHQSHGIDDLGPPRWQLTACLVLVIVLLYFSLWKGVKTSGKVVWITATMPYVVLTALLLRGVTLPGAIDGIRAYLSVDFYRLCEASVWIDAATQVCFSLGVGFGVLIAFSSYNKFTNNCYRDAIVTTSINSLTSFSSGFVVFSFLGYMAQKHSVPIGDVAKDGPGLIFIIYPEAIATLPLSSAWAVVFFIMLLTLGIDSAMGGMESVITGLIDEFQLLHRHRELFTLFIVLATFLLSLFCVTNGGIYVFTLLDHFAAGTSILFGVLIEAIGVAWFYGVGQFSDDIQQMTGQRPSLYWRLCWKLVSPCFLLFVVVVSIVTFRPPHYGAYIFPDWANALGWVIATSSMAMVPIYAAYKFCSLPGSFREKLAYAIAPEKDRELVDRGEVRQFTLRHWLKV
Sodium-dependent serotonin transporter, sequence (P31645 whole entry): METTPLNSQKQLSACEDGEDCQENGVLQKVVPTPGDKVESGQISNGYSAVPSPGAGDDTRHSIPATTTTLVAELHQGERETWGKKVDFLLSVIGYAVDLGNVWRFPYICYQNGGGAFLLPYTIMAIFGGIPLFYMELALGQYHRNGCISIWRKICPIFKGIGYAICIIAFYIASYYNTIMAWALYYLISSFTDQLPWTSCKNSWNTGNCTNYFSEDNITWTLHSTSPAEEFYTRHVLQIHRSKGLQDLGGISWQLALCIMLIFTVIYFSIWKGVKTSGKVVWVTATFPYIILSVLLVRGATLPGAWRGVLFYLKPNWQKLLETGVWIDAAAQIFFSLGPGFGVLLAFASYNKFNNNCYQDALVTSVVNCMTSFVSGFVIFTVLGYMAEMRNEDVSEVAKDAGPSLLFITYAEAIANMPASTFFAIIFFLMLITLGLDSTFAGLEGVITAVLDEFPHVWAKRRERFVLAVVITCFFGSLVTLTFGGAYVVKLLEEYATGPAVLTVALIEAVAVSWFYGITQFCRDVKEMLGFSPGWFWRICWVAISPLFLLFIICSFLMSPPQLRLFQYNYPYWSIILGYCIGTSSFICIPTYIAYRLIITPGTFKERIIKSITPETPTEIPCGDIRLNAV

Regarding `Fc1ccc(C(OCCN2CCN(C/C=C/c3ccccc3)CC2)c2ccc(F)cc2)cc1`, in experiment [1], the Kd was 0.954 µM and 0.363 µM.

In the case of `Fc1ccc(CN(CCCN2CCN(CCCc3ccccc3)CC2)c2ccccn2)cc1`, the Kd worked out at 0.282 µM in experiment [1] and 0.011 µM in experiment [2].

Consider `COc1ccc(OC)c(/C=C/CN2CCN(CCOC(c3ccc(F)cc3)c3ccc(F)cc3)CC2)c1`, for which the Kd in experiment [1] was 0.182 µM; in experiment [2], 0.0038 µM.

`Fc1ccc(C(OCCN2CCN(C/C=C/Cc3ccccc3)CC2)c2ccc(F)cc2)cc1`: the Kd in experiment [1] stood at 0.072 µM; in experiment [2], 0.0051 µM.

On to `c1ccc(CCCN2CCN(CCCN(Cc3ccccc3)c3ccccc3)CC2)cc1`, for which the Kd in experiment [1] was 0.759 µM and 0.758 µM; in experiment [2] it was 0.01 µM.

Regarding `Fc1ccc(CCCN2CCN(CCOC(c3ccccc3)c3ccc(F)cc3)CC2)cc1` (stereo unspecified), the Kd is 0.468 µM in experiment [1] and 0.031 µM in experiment [2].

Take `COc1ccc(N(CCN2CCN(CCCc3ccccc3)CC2)Cc2ccccc2)cc1`: the Kd in experiment [1] came to 0.257 µM; in experiment [2], 0.912 µM.

Turning to `COc1ccc(C(OCCN2CCN(C/C=C/c3ccccc3)CC2)c2ccccc2)cc1` (stereo unspecified), the affinity in experiment [1], expressed as Kd, was 0.692 µM.

Consider `COc1ccc(CN(CCN2CCN(C/C=C/c3ccccc3)CC2)c2ccccn2)cc1`, for which the Kd came out at 0.229 µM in experiment [1] and 2.19 µM in experiment [2].

Turning to `O=C(/C=C/c1ccccc1Cl)N1CCN(CCOC(c2ccc(F)cc2)c2ccc(F)cc2)CC1`, the figures for the Kd in experiment [1] and in experiment [2] were 0.17 µM and 0.724 µM, respectively.

`COc1ccc(CN(CCCN2CCN(CCCc3ccccc3)CC2)c2ccccn2)cc1`: the Kd in experiment [1] came to 0.059 µM; in experiment [2] it was 0.016 µM.

As for `O=C(/C=C/c1c(Cl)cccc1Cl)N1CCN(CCOC(c2ccc(F)cc2)c2ccc(F)cc2)CC1`, the Kd in experiment [1] was 0.209 µM; in experiment [2], 1.51 µM.

For `Cc1ccc(CN(CCN2CCN(CCCc3ccccc3)CC2)c2ccccc2)cc1`, the Kd in experiment [1] came to 0.813 µM; in experiment [2], 0.427 µM.

In the case of `COc1ccc(OC)c(/C=C/C(=O)N2CCN(CCOC(c3ccc(F)cc3)c3ccc(F)cc3)CC2)c1`, the Kd was 0.204 µM in experiment [1] and 0.562 µM in experiment [2].

As for `Fc1ccc(/C=C/CN2CCN(CCOC(c3ccccc3)c3ccccc3)CC2)cc1`, the Kd was found to be 1.32 µM in experiment [1] and 0.016 µM in experiment [2].

As for `Fc1ccc(CCCN2CCN(CCOC(c3ccc(F)cc3)c3ccc(F)cc3)CC2)cc1`, the Kd in experiment [1] was 0.363 µM; in experiment [2], 0.0056 µM.

Consider `c1ccc(CCCN2CCN(CCN(Cc3ccccc3)c3ccccc3)CC2)cc1`, for which the Kd in experiment [1] turned out to be 1.2 µM; in experiment [2] it was 0.219 µM.

Turning to `Fc1ccc(CCCN2CCN(CCOC(c3ccccc3)c3ccccc3)CC2)cc1`, the figures for the Kd in experiment [1] and in experiment [2] were 1.82 µM and 0.04 µM, respectively.

Turning to `Fc1ccc(CN(CCN2CCN(CCCc3ccccc3)CC2)c2ccc(F)cc2)cc1`, the Kd in experiment [1] worked out at 0.269 µM; in experiment [2], 0.052 µM.

Turning to `Cc1ccc(C(OCCN2CCN(C/C=C/c3ccccc3)CC2)c2ccccc2)cc1` (stereo unspecified), the Kd in experiment [1] amounted to 1.12 µM; in experiment [2] it was 0.112 µM.

Consider `Fc1ccc(/C=C/CN2CCN(CCOC(c3ccccc3)c3ccc(F)cc3)CC2)cc1` (stereo unspecified), for which the Kd in experiment [1] is 0.2 µM; in experiment [2], 0.023 µM.

As to `Cc1ccc(/C=C/CN2CCN(CCOC(c3ccc(F)cc3)c3ccc(F)cc3)CC2)cc1`, the Kd in experiment [1] was found to be 0.661 µM; in experiment [2], 0.048 µM.

As to `O=C(CCCCN1CCN(CCCc2ccccc2)CC1)N(Cc1ccccc1)c1ccccc1`, the Kd in experiment [1] was determined as 0.204 µM; in experiment [2], 0.058 µM.

As to `c1ccc(CCCN2CCN(CCCCCN(Cc3ccccc3)c3ccccc3)CC2)cc1`, the Kd in experiment [1] was determined as 0.234 µM; in experiment [2], 0.032 µM.

In the case of `Fc1ccc(C(OCCN2CCN(C/C=C/c3ccccc3)CC2)c2ccc(Cl)cc2Cl)cc1` (stereo unspecified), the Kd was 0.525 µM in experiment [1] and 0.066 µM in experiment [2].

Regarding `c1ccc(CCCN2CCN(CCCN(Cc3ccccc3)c3ccccn3)CC2)cc1`, the figures for the Kd in experiment [1] and in experiment [2] were 2.29 µM and 0.107 µM, respectively.

With `c1ccc(CCCN2CCN(CCCCN(Cc3ccccc3)c3ccccc3)CC2)cc1`, the Kd in experiment [1] came to 0.132 µM; in experiment [2] it was 0.014 µM.

Consider `CN(CCc1ccccc1)CCN1CCN(CCCc2ccccc2)CC1`, for which the Kd in experiment [1] was 2.63 µM; in experiment [2], 0.55 µM.

In the case of `COc1ccc(CN(CCN2CCN(CCCc3ccccc3)CC2)c2ccccn2)cc1`, the values for the Kd in experiment [1] and in experiment [2] were 0.162 µM and 0.219 µM, respectively.

For `O=C(/C=C/c1ccc(Cl)cc1)N1CCN(CCOC(c2ccc(F)cc2)c2ccc(F)cc2)CC1`, the Kd in experiment [1] was determined as 0.072 µM; in experiment [2], 0.427 µM.

Take `Cc1ccc(/C=C/C(=O)N2CCN(CCOC(c3ccc(F)cc3)c3ccc(F)cc3)CC2)cc1`: the Kd in experiment [1] is 0.195 µM; in experiment [2], 0.794 µM.

Consider `O=C(CCCN1CCN(CCCc2ccccc2)CC1)N(Cc1ccccc1)c1ccccc1`, for which the Kd in experiment [1] turned out to be 0.525 µM; in experiment [2], 0.028 µM.

As to `Fc1ccc(C(OCCN2CCN(C/C=C/c3ccc(Cl)cc3)CC2)c2ccc(F)cc2)cc1`, the figures for the Kd in experiment [1] and in experiment [2] were 0.813 µM and 0.022 µM, respectively.

On to `Fc1ccc(C(OCCN2CCN(C/C=C/c3ccccc3)CC2)c2ccc(Cl)cc2)cc1` (stereo unspecified), for which the Kd stood at 0.191 µM in experiment [1] and 0.0039 µM in experiment [2].

On to `COc1ccc(N(CCN2CCN(C/C=C/c3ccccc3)CC2)Cc2ccccc2)cc1`, for which binding in experiment [1] was characterised by a dissociation constant (Kd) of 0.282 µM. That is a sub-micromolar value.

As for `Fc1ccc(C(OCCN2CCN(C/C=C/c3ccccc3)CC2)c2ccccc2)cc1` (stereo unspecified), the Kd in experiment [1] amounted to 0.214 µM; in experiment [2], 0.033 µM.

In the case of `Brc1ccc(CN(CCN2CCN(CCCc3ccccc3)CC2)c2ccc(Br)cc2)cc1`, the Kd stood at 1.62 µM in experiment [1] and 0.977 µM in experiment [2].

In the case of `C(=C\c1ccccc1)/CN1CCN(CCN(Cc2ccccc2)c2ccccc2)CC1`, the Kd stood at 0.603 µM in experiment [1] and 0.447 µM in experiment [2].

For `Fc1ccc(CN(CCN2CCN(CCCc3ccccc3)CC2)c2ccccn2)cc1`, the values for the Kd in experiment [1] and in experiment [2] were 0.229 µM and 0.065 µM, respectively.

As for `COc1cccc(C(OCCN2CCN(C/C=C/c3ccccc3)CC2)c2cccc(Br)c2)c1` (stereo unspecified), the values for the Kd in experiment [1] and in experiment [2] were 0.741 µM and 0.132 µM, respectively.

For `Fc1ccc(/C=C/CN2CCN(CCOC(c3ccc(F)cc3)c3ccc(F)cc3)CC2)cc1`, the Kd in experiment [1] was 0.229 µM; in experiment [2], 0.0039 µM.

Regarding `c1ccc(CCCN2CCN(CCN(Cc3ccccc3)c3ccccn3)CC2)cc1`, the figures for the Kd in experiment [1] and in experiment [2] were 0.525 µM and 0.091 µM, respectively.

As to `C(=C\c1ccccc1)/CN1CCN(CCN(Cc2ccccc2)c2ccccn2)CC1`, the Kd in experiment [1] worked out at 0.676 µM; in experiment [2], 1 µM.

`Fc1ccc(CN(CCCN2CCN(CCCc3ccccc3)CC2)c2ccc(F)cc2)cc1`: the Kd came to 0.331 µM in experiment [1] and 0.014 µM in experiment [2].

`O=C(CN1CCN(CCCc2ccccc2)CC1)N(Cc1ccccc1)c1ccccc1`: the figures for the Kd in experiment [1] and in experiment [2] were 2.88 µM and 1.07 µM, respectively.

Consider `Fc1ccc(C(OCCN2CCN(CCCc3ccccc3)CC2)c2ccccc2)cc1` (stereo unspecified), for which the Kd in experiment [1] worked out at 0.617 µM; in experiment [2], 0.02 µM.

In the case of `COc1ccc(/C=C/C(=O)N2CCN(CCOC(c3ccc(F)cc3)c3ccc(F)cc3)CC2)cc1`, the values for the Kd in experiment [1] and in experiment [2] were 0.141 µM and 0.49 µM, respectively.

As for `Fc1ccc(C(OCCN2CCN(Cc3ccccc3)CC2)c2ccc(F)cc2)cc1`, the figures for the Kd in experiment [1] and in experiment [2] were 0.182 µM and 0.098 µM, respectively.

Regarding `Fc1ccc(C(OCCN2CCN(CCCc3ccc(Cl)cc3)CC2)c2ccc(F)cc2)cc1`, the Kd in experiment [1] was found to be 0.155 µM; in experiment [2] it was 0.0081 µM.

With `Clc1ccc(C(OCCN2CCN(C/C=C/c3ccccc3)CC2)c2ccc(Cl)cc2)cc1`, the Kd in experiment [1] was determined as 0.331 µM; in experiment [2], 0.038 µM.

Consider `O=C(CCCN1CCN(CCCc2ccccc2)CC1)N(Cc1ccccc1)c1ccccn1`, for which the figures for the Kd in experiment [1] and in experiment [2] were 1.32 µM and 0.562 µM, respectively.

As for `COc1ccc(/C=C/CN2CCN(CCOC(c3ccc(F)cc3)c3ccc(F)cc3)CC2)cc1` [1-{2-[Bis-(4-fluoro-phenyl)-methoxy]-ethyl}-4-[(E)-3-(4-methoxy-phenyl)-allyl]-piperazine], the Kd in experiment [1] is 0.372 µM; in experiment [2], 0.065 µM.
